{"source": "PubChem BioAssay AID1259409", "about": "(Chemical Carcinogenesis Research Information System (CCRIS), 2018)", "origin": "cited, not measured here", "system": "rodent chemically induced tumor inhibition, incidence and multiplicity", "test": "CCRIS tumor inhibitor studies", "conditions": "for outcome: Carcinogen: N-BUTYL-N-(4-HYDROXYBUTYL)NITROSAMINE [3817-11-6], Route [Inhibitor]: INTRAGASTRIC, Species: MOUSE, Strain/Sex: C57BL/6/FEMALE, Promoter: NONE; for tumour outcome (control, treated, inhibition, significance): Dose [Inhibitor]: 0, Species: RAT"}
{"smiles": "CN1CCN(c2c(F)cc3c(=O)c(C(=O)O)cn(CCF)c3c2F)CC1", "values": [{"measurement": "outcome", "setting": "Dose [Inhibitor]: 10 MG ONCE/D FOR 1 WK BEGINNING 1 WK PRIOR TO FIRST CARCINOGEN DOSE (STUDY DURATION: 13 WK), Target Tissue: Type of Lesion: URINARY BLADDER: CARCINOMA IN SITU, Dose [Carcinogen]: 0.05% IN DRINKING WATER FOR 8 WK BEGINNING IMMEDIATELY POST LAST INHIBITOR DOSE (STUDY DURATION: 13 WK)", "result": "1, 0, not significant"}, {"measurement": "outcome", "setting": "Dose [Inhibitor]: 10 MG ONCE/D FOR 1 WK BEGINNING 1 WK PRIOR TO FIRST CARCINOGEN DOSE (STUDY DURATION: 13 WK), Target Tissue: Type of Lesion: URINARY BLADDER: INVASIVE CARCINOMA, Dose [Carcinogen]: 0.05% IN DRINKING WATER FOR 8 WK BEGINNING IMMEDIATELY POST LAST INHIBITOR DOSE (STUDY DURATION: 13 WK)", "result": "0, 0, not significant"}, {"measurement": "outcome", "setting": "Dose [Inhibitor]: 10 MG ONCE/D FOR 1 WK BEGINNING 1 WK PRIOR TO FIRST CARCINOGEN DOSE (STUDY DURATION: 17 WK), Target Tissue: Type of Lesion: URINARY BLADDER: CARCINOMA IN SITU, Dose [Carcinogen]: 0.05% IN DRINKING WATER FOR 8 WK BEGINNING IMMEDIATELY POST LAST INHIBITOR DOSE (STUDY DURATION: 17 WK)", "result": "1, 0, not significant"}, {"measurement": "outcome", "setting": "Dose [Inhibitor]: 10 MG ONCE/D FOR 1 WK BEGINNING 1 WK PRIOR TO FIRST CARCINOGEN DOSE (STUDY DURATION: 17 WK), Target Tissue: Type of Lesion: URINARY BLADDER: INVASIVE CARCINOMA, Dose [Carcinogen]: 0.05% IN DRINKING WATER FOR 8 WK BEGINNING IMMEDIATELY POST LAST INHIBITOR DOSE (STUDY DURATION: 17 WK)", "result": "1, 0, not significant"}, {"measurement": "outcome", "setting": "Dose [Inhibitor]: 10 MG ONCE/D FOR 1 WK BEGINNING 1 WK PRIOR TO FIRST CARCINOGEN DOSE (STUDY DURATION: 21 WK), Target Tissue: Type of Lesion: URINARY BLADDER: CARCINOMA IN SITU, Dose [Carcinogen]: 0.05% IN DRINKING WATER FOR 12 WK BEGINNING IMMEDIATELY POST LAST INHIBITOR DOSE (STUDY DURATION: 21 WK)", "result": "0, 1, not significant"}, {"measurement": "outcome", "setting": "Dose [Inhibitor]: 10 MG ONCE/D FOR 1 WK BEGINNING 1 WK PRIOR TO FIRST CARCINOGEN DOSE (STUDY DURATION: 21 WK), Target Tissue: Type of Lesion: URINARY BLADDER: INVASIVE CARCINOMA, Dose [Carcinogen]: 0.05% IN DRINKING WATER FOR 12 WK BEGINNING IMMEDIATELY POST LAST INHIBITOR DOSE (STUDY DURATION: 21 WK)", "result": "9, 6, not significant"}, {"measurement": "outcome", "setting": "Dose [Inhibitor]: 50 MG ONCE/D FOR 1 WK BEGINNING 1 WK PRIOR TO FIRST CARCINOGEN DOSE (STUDY DURATION: 13 WK), Target Tissue: Type of Lesion: URINARY BLADDER: CARCINOMA IN SITU, Dose [Carcinogen]: 0.05% IN DRINKING WATER FOR 8 WK BEGINNING IMMEDIATELY POST LAST INHIBITOR DOSE (STUDY DURATION: 13 WK)", "result": "1, 0, not significant"}, {"measurement": "outcome", "setting": "Dose [Inhibitor]: 50 MG ONCE/D FOR 1 WK BEGINNING 1 WK PRIOR TO FIRST CARCINOGEN DOSE (STUDY DURATION: 13 WK), Target Tissue: Type of Lesion: URINARY BLADDER: INVASIVE CARCINOMA, Dose [Carcinogen]: 0.05% IN DRINKING WATER FOR 8 WK BEGINNING IMMEDIATELY POST LAST INHIBITOR DOSE (STUDY DURATION: 13 WK)", "result": "0, 0, not significant"}, {"measurement": "outcome", "setting": "Dose [Inhibitor]: 50 MG ONCE/D FOR 1 WK BEGINNING 1 WK PRIOR TO FIRST CARCINOGEN DOSE (STUDY DURATION: 17 WK), Target Tissue: Type of Lesion: URINARY BLADDER: CARCINOMA IN SITU, Dose [Carcinogen]: 0.05% IN DRINKING WATER FOR 8 WK BEGINNING IMMEDIATELY POST LAST INHIBITOR DOSE (STUDY DURATION: 17 WK)", "result": "1, 0, not significant"}, {"measurement": "outcome", "setting": "Dose [Inhibitor]: 50 MG ONCE/D FOR 1 WK BEGINNING 1 WK PRIOR TO FIRST CARCINOGEN DOSE (STUDY DURATION: 17 WK), Target Tissue: Type of Lesion: URINARY BLADDER: INVASIVE CARCINOMA, Dose [Carcinogen]: 0.05% IN DRINKING WATER FOR 8 WK BEGINNING IMMEDIATELY POST LAST INHIBITOR DOSE (STUDY DURATION: 17 WK)", "result": "1, 0, not significant"}, {"measurement": "outcome", "setting": "Dose [Inhibitor]: 50 MG ONCE/D FOR 1 WK BEGINNING 1 WK PRIOR TO FIRST CARCINOGEN DOSE (STUDY DURATION: 21 WK), Target Tissue: Type of Lesion: URINARY BLADDER: CARCINOMA IN SITU, Dose [Carcinogen]: 0.05% IN DRINKING WATER FOR 12 WK BEGINNING IMMEDIATELY POST LAST INHIBITOR DOSE (STUDY DURATION: 21 WK)", "result": "0, 2, not significant"}, {"measurement": "outcome", "setting": "Dose [Inhibitor]: 50 MG ONCE/D FOR 1 WK BEGINNING 1 WK PRIOR TO FIRST CARCINOGEN DOSE (STUDY DURATION: 21 WK), Target Tissue: Type of Lesion: URINARY BLADDER: INVASIVE CARCINOMA, Dose [Carcinogen]: 0.05% IN DRINKING WATER FOR 12 WK BEGINNING IMMEDIATELY POST LAST INHIBITOR DOSE (STUDY DURATION: 21 WK)", "result": "9, 5, not significant"}]}
{"smiles": "CCCCCN(CCCCC)C(=O)C(CCC(=O)O)NC(=O)c1ccc(Cl)c(Cl)c1", "note": "(stereo unspecified)", "values": [{"measurement": "tumour outcome (control, treated, inhibition, significance)", "setting": "Carcinogen: 7,12-DIMETHYLBENZ[A]ANTHRACENE, 57-97-6, 12 MG/KG 2/D FOR 15 D POST CARCINOGEN TREATMENT (STUDY DURATION: 6 MO), Route [Inhibitor]: SUBCUTANEOUS, Strain/Sex: SPRAGUE-DAWLEY/MALE, Target Tissue: Type of Lesion: PANCREAS: CARCINOMA, Dose [Carcinogen]: 2-3 MG ONCE, Promoter: CAERULEIN, 17650-98-5", "result": "11/15 (73%), 7/15 (47%), 36%, p<0.02"}, {"measurement": "tumour outcome (control, treated, inhibition, significance)", "setting": "Carcinogen: AZASERINE, 115-02-6, 12 MG/KG BW 1/D 3 D/WK FOR 8 MO BEGINNING 4 MO POST FIRST CARCINOGEN DOSE (STUDY DURATION: 8 MO), Route [Inhibitor]: SUBCUTANEOUS, Strain/Sex: WISTAR/MALE, Target Tissue: Type of Lesion: PANCREAS: TUMOR, Dose [Carcinogen]: 30 MG/KG ON DAYS 19, 26, AND 54 OF AGE, Promoter: CHOLECYSTOKININ, 9011-97-6", "result": "19/34 (56%), 15/35 (43%), 23%, not significant"}, {"measurement": "tumour outcome (control, treated, inhibition, significance)", "setting": "Carcinogen: AZASERINE, 115-02-6, 12 MG/KG BW 1/D 30 MIN PRIOR TO PROMOTER DOSE 3 D/WK FOR 8 MO BEGINNING 4 MO POST FIRST CARCINOGEN DOSE (STUDY DURATI, Route [Inhibitor]: SUBCUTANEOUS, Strain/Sex: WISTAR/MALE, Target Tissue: Type of Lesion: PANCREAS: TUMOR, Dose [Carcinogen]: 30 MG/KG ON DAYS 19, 26, AND 54 OF AGE, Promoter: BOMBESIN, 31362-50-2", "result": "28/37 (76%), 18/32 (56%), 26%, not significant"}]}
{"smiles": "CC(C)=CCC/C(C)=C/CO", "values": [{"measurement": "tumour outcome (control, treated, inhibition, significance)", "setting": "Carcinogen: 7,12-DIMETHYLBENZ[A]ANTHRACENE, 57-97-6, 36 MMOL/KG IN DIET FOR 24 WK BEGINNING 2 WK PRIOR TO CARCINOGEN DOSE (STUDY DURATION: 24 WK), Route [Inhibitor]: ORAL, Strain/Sex: SPRAGUE-DAWLEY/FEMALE, Target Tissue: Type of Lesion: MAMMARY GLAND: TUMOR, Dose [Carcinogen]: 65 MG/KG BW ONCE, Promoter: NONE USED", "result": "91%, 81%, 11%, not significant"}]}
